Patent US7855292B2, “Sulfonamide compounds” (Janssen Pharmaceutica NV, priority 2004, dated 2010)

Experiments:
CCK-1 receptor = target: T1, CCK-1 receptor (Homo sapiens, UniProt P32238); assay: CCK1 binding assay ([125I]-BH-CCK-8S displacement, CHO-K1 membranes); conditions: membranes of CHO-K1 cells stably transfected with the CCK-1 receptor; 20 pM [125I]-BH-CCK-8S; 0.3 μM PD-134,308 present; 60 min at 21±3° C.; read-out: CCK1 pKi (converted)
T1 construct: expressed in transfected cells; host or cells: CHO-K1
T1 sequence (P32238 1-428): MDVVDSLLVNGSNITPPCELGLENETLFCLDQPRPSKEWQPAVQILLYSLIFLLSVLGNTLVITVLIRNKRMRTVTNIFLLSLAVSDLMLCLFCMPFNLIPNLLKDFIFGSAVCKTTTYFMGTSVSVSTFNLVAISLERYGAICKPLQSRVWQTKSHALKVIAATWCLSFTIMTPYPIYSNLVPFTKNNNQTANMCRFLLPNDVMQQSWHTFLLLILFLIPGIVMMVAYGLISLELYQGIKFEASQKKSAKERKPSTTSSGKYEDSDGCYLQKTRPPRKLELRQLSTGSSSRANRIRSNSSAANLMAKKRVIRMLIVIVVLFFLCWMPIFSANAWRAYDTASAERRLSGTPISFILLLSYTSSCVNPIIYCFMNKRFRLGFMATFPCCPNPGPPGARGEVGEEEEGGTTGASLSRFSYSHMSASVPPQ
Procedure: 1. CCK1 Assay Development and Data Generation
CHO-K1 cells that had undergone stable transfection with the CCK-1 receptor were grown in DMEM supplemented with L-glutamine (2 mM), penicillin (50 units/mL) and streptomycin (50 μg/mL). Cells were cultured under continuous G418 selection (2 mM) and were harvested using a rubber cell scraper. CHO-K1 cells were sub-cultured a maximum of ten times before being reseeded from the original stocks.
Membranes were prepared from the stably transfected CHO-K1 cells. Frozen cell pellets (−40° C.) were thawed in 14 mL of buffer A (10 mM HEPES, 130 mM NaCl, 4.7 mM KCl, 5 mM MgCl, 1 mM EGTA and 15.4 mg/100 mL bacitracin at pH 7.2), adapted from Harper et al. (Br. J. Pharmacol. 1996, 118:1717-1726). The thawed pellets were homogenized using a Polytron PT-10 (7×1 s). The homogenates were centrifuged for 5 min at 1500 rpm (600×g), and the resulting pellets were discarded. The supernatants were re-centrifuged in order to collect the receptor-membrane pellets (25 min 15,000 rpm; 39,800×g), which were re-suspended in buffer A.
All assays were conducted in 96-well plates (GF/B millipore filter plates) using buffer A, with 0.3 μM PD-134,308, for the dilutions. The CCK-2 receptor ligand was included to eliminate the contribution of this receptor subtype to the binding. For the optimal cell number determination experiments 20 pM [^125I]-BH-CCK-8S (50 μL […] solution) was incubated with a range of cell concentrations ([…] to 12.5×10^5 cells/well) in a total volume of 150 μL. Total binding of [^125I]-BH-CCK-8S was determined in the presence of 15 μL of buffer A. Non-specific binding of [^125I]-BH-CCK-8S was determined in the presence of 15 μL of 100 μM 2-naphthalenesulphonyl L-aspartyl-(2-phenethyl)amide (2-NAP: see R. A. Hull et al. Br. J. Pharmacol. 1993, 108:734-740), a CCK-1 receptor selective antagonist that is structurally unrelated to the radioligand [^125I]-BH-CCK-8S. The assay preparation was incubated for 1 h at 21±3° C., and then the assay was terminated upon rapid filtration of the preparation under reduced pressure. The loaded filters were washed three times using undiluted PBS ([…]), and then the residues were transferred to 5 mL scintillation tubes. Bound radioactivity was determined using a gamma counter (count time=1 min). […] To validate the radioligand concentration and incubation time for the assay, saturation and kinetic binding studies were also conducted (see M. F. Morton, The Pharmacological Characterization of Cholecystokinin Receptors in the Human Gastrointestinal Tract. PhD Thesis, University of London, 2000). […] The assay was then terminated according to the procedure outlined above.
(§1) 3. Data Analysis for CCK1 and CCK2 Binding Assays
The pKi values were determined using the equation of Y.-C. Cheng and W. H. Prusoff (Biochem. Pharmacol., 1973, 22(23):3099-3108):
(§2) [formula] To circumvent problems associated with computer-assisted data analysis of compounds with low affinity, the data obtained in the current study were weighted according to a method described by Morton. In brief, 100% and 0% specific binding were defined independently using total binding and binding obtained in the presence of a high concentration of the reference antagonist, 2-NAP.

CCK2 receptor = target: T2, CCK2 receptor (Homo sapiens, UniProt P32239); assay: CCK2 binding assay ([125I]-BH-CCK-8S displacement, HEKZFP membranes); conditions: membranes of doxycycline-induced HEKZFP cells; 20 pM [125I]-BH-CCK-8S; 60 min at 21±3° C.; read-out: CCK2 pKi (converted)
T2 construct: analyzed for ZFP expression as well as CCK2R induction upon addition of doxycycline to the culture medium; endogenous in cells
T2 sequence (P32239 1-447): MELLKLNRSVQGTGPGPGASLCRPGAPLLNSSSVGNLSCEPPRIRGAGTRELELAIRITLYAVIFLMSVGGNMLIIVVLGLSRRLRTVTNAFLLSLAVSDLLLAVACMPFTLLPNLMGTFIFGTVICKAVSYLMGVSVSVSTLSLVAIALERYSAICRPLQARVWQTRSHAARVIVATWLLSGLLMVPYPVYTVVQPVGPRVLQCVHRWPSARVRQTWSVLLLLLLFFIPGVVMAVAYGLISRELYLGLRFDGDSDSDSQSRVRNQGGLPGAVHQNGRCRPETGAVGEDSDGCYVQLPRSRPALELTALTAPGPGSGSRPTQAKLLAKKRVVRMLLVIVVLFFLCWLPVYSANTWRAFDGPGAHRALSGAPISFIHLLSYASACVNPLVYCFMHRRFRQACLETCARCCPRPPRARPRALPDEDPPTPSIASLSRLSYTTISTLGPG
Procedure: 2. CCK2 Assay Development and Data Generation
Zinc Finger Proteins (ZFP) specific for the CCK2R gene were identified by Sangamo Biosciences. The ZFP domain was fused with the herpes simplex virus VP16 activation domain, and the fusion protein was subsequently cloned into the pcDNA3 mammalian expression vector (Invitrogen, San Diego, Calif.). […] After 2 weeks of selection in culture medium containing […] Zeocin (Invitrogen), sixty drug-resistant stable clones were isolated and analyzed for ZFP expression as well as CCK2R induction upon addition of doxycycline to the culture medium.
HEKZFP cells were grown in DMEM supplemented with L-glutamine (2 mM), penicillin (50 units/mL) and streptomycin (50 μg/mL) and 10% FBS (v/v).
Membranes were prepared from the HEKZFP cells after induction. […] The thawed pellets were homogenized using a Polytron PT-10 (7×1 s). The homogenates were centrifuged for 5 min at 1500 rpm (600×g), and the resulting pellets were discarded. The supernatants were re-centrifuged in order to collect the receptor-membrane pellets (25 min 15,000 rpm; 39,800×g), which were re-suspended in buffer A.
The assay preparation was incubated for 1 h at 21±3° C., and then the assay was terminated by rapid filtration of the preparation under reduced pressure. The loaded filters were washed three times using undiluted PBS (100 μL), and then 100 μL of scintillation fluid was added to the filter plate. Bound radioactivity was determined using a Topcount (Packard BioScience, Meriden, Conn.) with a count time of 1 min. […] To validate the radioligand concentration and incubation time for the assay, saturation and kinetic binding studies were also conducted (see M. F. Morton, The Pharmacological Characterization of Cholecystokinin Receptors in the Human Gastrointestinal Tract. PhD Thesis, University of London, 2000). […] The assay was then terminated according to the procedure outlined above.
as §1
The pKi values were determined using the equation of Y.-C.
as §2

SMILES	Ki (CCK-1 receptor)	Ki (CCK2 receptor)
CC(CNC(=O)c1ccc(Cl)cc1NS(=O)(=O)c1cccc2nccnc12)c1ccc(Cl)c(Cl)c1 (racemic) [Example 59, (±)-4-Chloro-N-[2-(3,4-dichloro-phenyl)-propyl]-2-(quinoxaline-5-sulfonylamino)-benzamide]	79.4 nM	794 nM
CC(CNC(=O)c1ccc(I)cc1NS(=O)(=O)c1cccc2nccnc12)c1ccc(Cl)c(Cl)c1 (racemic) [Example 61, (±)-N-[2-(3,4-Dichloro-phenyl)-propyl]-4-iodo-2-(quinoxaline-5-sulfonylamino)-benzamide]	126 nM	398 nM
O=C(N[C@@H](C(=O)O)[C@@H](O)c1ccc(Cl)c(Cl)c1)c1ccc(Cl)cc1NS(=O)(=O)c1cccc2nsnc12 (relative stereo) [Example 121, anti-2-[2-(Benzo[1,2,5]thiadiazole-4-sulfonylamino)-4-chloro-benzoylamino]-3-(3,4-dichloro-phenyl)-3-hydroxy-propionic acid]	126 nM	501 nM
Cc1ccc(CC(NC(=O)c2ccc(I)cc2NS(=O)(=O)c2cccc3nccnc23)C(=O)O)cc1 (stereo in doubt) [Example 79, (S)-2-[4-Iodo-2-(quinoxaline-5-sulfonylamino)-benzoylamino]-3-p-tolyl-propionic acid]	63.1 nM	1260 nM
O=C(N[C@@H](Cc1ccccc1)C(=O)O)c1cc(Cl)c(Cl)cc1NS(=O)(=O)c1cccc2nsnc12 [Example 3, 2-[2-(Benzo[1,2,5]thiadiazole-4-sulfonylamino)-4,5-dichloro-benzoylamino]-3-phenyl-propionic acid]	1000 nM	39.8 nM
O=C(N[C@@H](Cc1cccc(Br)c1)C(=O)O)c1ccc(I)cc1NS(=O)(=O)c1cccc2nsnc12 [Example 4, (S)-2-[2-(Benzo[1,2,5]thiadiazole-4-sulfonylamino)-4-iodo-benzoylamino]-3-(3-bromo-phenyl)-propionic acid]	631 nM	5.01 nM
CC(CNC(=O)c1ccc(Br)cc1NS(=O)(=O)c1cccc2nsnc12)c1ccc(Cl)c(Cl)c1 (stereo not drawn) [Example 5, 2-(Benzo[1,2,5]thiadiazole-4-sulfonylamino)-4-bromo-N-[2-(3,4-dichloro-phenyl)-propyl]-benzamide]	15.8 nM	316 nM
COC(=O)[C@H](Cc1ccc(Br)s1)NC(=O)c1ccc(Cl)cc1NS(=O)(=O)c1cccc2nccnc12 [Example 8, (S)-3-(5-Bromo-thiophen-2-yl)-2-[4-chloro-2-(quinoxaline-5-sulfonylamino)-benzoylamino]-propionic acid methyl ester]	3160 nM	501 nM
O=C(N[C@@H](Cc1ccc2ccccc2c1)C(=O)O)c1ccc(Cl)cc1NS(=O)(=O)c1cccc2nccnc12 [Example 9, (S)-2-[4-Chloro-2-(quinoxaline-5-sulfonylamino)-benzoylamino]-3-naphthalen-2-yl-propionic acid]	158 nM	398 nM
NC(=O)[C@H](Cc1ccc(Cl)cc1)NC(=O)c1cc(Cl)c(Cl)cc1NS(=O)(=O)c1cccc2nsnc12 [Example 11, (S)-2-(Benzo[1,2,5]thiadiazole-4-sulfonylamino)-N-[1-carbamoyl-2-(4-chloro-phenyl)-ethyl]-4,5-dichloro-benzamide]	398 nM	316 nM
C[C@H](CN1C(=O)c2cc(Br)cc(NS(=O)(=O)c3cccc4nsnc34)c2C1=O)c1ccccc1 [Example 13, (S)-Benzo[1,2,5]thiadiazole-4-sulfonic acid [6-bromo-1,3-dioxo-2-(2-phenyl-propyl)-2,3-dihydro-1H-isoindol-4-yl]-amide]	1260 nM	631 nM
O=C(N[C@H](Cc1ccc(Cl)cc1)C(=O)O)c1cc(Cl)c(Cl)cc1NS(=O)(=O)c1cccc2nsnc12 [Example 14, (R)-2-[2-(Benzo[1,2,5]thiadiazole-4-sulfonylamino)-4,5-dichloro-benzoylamino]-3-(4-chloro-phenyl)-propionic acid]	12.6 nM	316 nM
O=C(N[C@H](Cc1ccc(Cl)cc1)C(=O)O)c1ccc(I)cc1NS(=O)(=O)c1cccc2nccnc12 [Example 15, (R)-3-(4-Chloro-phenyl)-2-[4-iodo-2-(quinoxaline-5-sulfonylamino)-benzoylamino]-propionic acid]	39.8 nM	200 nM
O=C(N[C@H](Cc1ccccc1)C(=O)O)c1ccc(I)cc1NS(=O)(=O)c1c(F)cccc1F [Example 17, (R)-2-[2-(2,6-Difluoro-benzenesulfonylamino)-4-iodo-benzoylamino]-3-phenyl-propionic acid]	79.4 nM	2510 nM
CN(CCc1ccccc1)C(=O)c1ccc(Br)cc1NS(=O)(=O)c1cccc2nsnc12 [Example 20, 2-(Benzo[1,2,5]thiadiazole-4-sulfonylamino)-4-bromo-N-methyl-N-phenethyl-benzamide]	2000 nM	100 nM
